The text below walks through data of patent US20240125768A1, “METHODS FOR MODULATING A SRC-1 CONDENSATE” (ETERN BIOPHARMA (SHANGHAI) CO., LTD., priority 2021, published 2024).

“Also recorded” adds a separate entry of the source.

One assay has as its target T1, SRC-1 condensates (Homo sapiens, UniProt Q15788).
T1 construct: expressed in transfected cells; host or cells: SF268
Kind of assay: Live cell imaging of SRC-1 condensates. The class given is cell-based. The protocol: (§1) Cells were grown on 24-well glass bottom plate (Cellvis, P24-1.5H-N) and images were taken with the Leica TCS SP8 confocal microscopy system using a 100× oil objective (NA=1.4). Cells were imaged on a heated stage(37° C.) and supplemented with warmed (37° C.) humidified air.
(§2) For compounds treatment assay, SF268 cells were co-transfected with YAP5SA, TEAD4-mTagBFP2 and mNeoGreen-SRC1. YAP variant YAP5SA which is insensitive to the upstream Hippo pathway, sequestered YAP in nucleus. To circumvent the limitations brought by red fluorescent proteins, TEAD condensates which have been reported to depend on YAP, were used to characterize YAP/TEAD transcriptional condensates. Six hours after transfection, SF268 cells were seeded on 24-well glass bottom plate (Cellvis, P24-1.5H-N) and compounds were added two hours later. Cells were imaged every 30 mins after EVG or other compounds were added.
(§3) Cells were grown on 24-well glass bottom plate (Cellvis, P24-1.5H-N) and images were taken with the Leica TCS SP8 confocal microscopy system using a 100× oil objective (NA=1.4). Cells were imaged on a heated stage (37° C.) and supplemented with warmed (37° C.) humidified air. […]
(§4) Data was analyzed by images collected from 100 representative fields in each group. The spots quantification was performed based on the number and intensity of the spots through green (mNeoGreen-SRC1) and blue (TEAD4-mTagBFP2) channel. […]

The next assay relates to YAP/TEAD4 condensates. Briefly: Live cell imaging of YAP/TEAD condensates. The assay is classed as cell-based. Conditions: H1299 cells co-transfected with YAP5SA, TEAD4-mTagBFP, mNeoGreen-SRC1; 20 μM. How it is done: as §1, §2, §3, §4
For another assay, the system named is YAP. Kind of assay: ChIP-qPCR of YAP association on YAP target regions. The assay is classed as cell-based, human. The conditions noted are these: DMSO or elvitegravir. How it is done:
FIG. 7J illustrates the association of YAP on YAP targets regions (#1:ANKRD1enhancer, #2:PAWRpromoter, #3:NPPBpromoter, #4:CTGF promoter) were analyzed by ChIP-qPCR from cells treated with DMSO or elvitegravir. Data are representative of 3 independent experiments. Error bars indicate the s.e.m. of triplicate qPCR data.
FIG. 7K illustrates the association of YAP on YAP target regions were analyzed by ChIP-qPCR in SF268 cells treated with EVG or DMSO. Error bars show mean±s.e.m. (n=3).
Briefly, cells were crosslinked with 1% formaldehyde (Sigma) in culture medium for 10 min at room temperature, and chromatin from lysed nuclei was sheared to 200-1000 bp fragments using a Bioruptor® Pico (Diagenode SA). ˜50 μg of sheared chromatin and ˜2 μg of antibody were mixed. […] Quantitative real-time PCR was carried out with QuantStudio™ 6 Flex Real-Time PCR Systems (Thermofisher Scientific). The amount of immunoprecipitated DNA in each sample was determined as the fraction of the input, and normalized to the IgG control. […]
(§5) Chromatin immunoprecipitation antibodies are listed in Supplementary […] Supplementary Methods. […] Quantitative real-time PCR was carried out with QuantStudio™ 6 Flex Real-Time PCR Systems (Thermofisher Scientific). The amount of immunoprecipitated DNA in each sample was determined as the fraction of the input, and normalized to the IgG control.

The subject of another assay is H3K27ac. Briefly: ChIP-qPCR of histone modifications at YAP target regions. The class given is cell-based, human. Conditions: SF268 cells. The protocol:
FIG. 7L illustrates analysis of indicated histone modifications at YAP targets regions #1 from SF268 cells treated with DMSO or EVG by ChIP-qPCR. Error bars show mean±s.e.m. (n=3), *p<0.05, ***p<0.001
Briefly, cells were crosslinked with 1% formaldehyde (Sigma) in culture medium for 10 min at room temperature, and chromatin from lysed nuclei was sheared to 200-1000 bp fragments using a Bioruptor® Pico (Diagenode SA). ˜50 μg of sheared chromatin and ˜2 μg of antibody were mixed. Antibody/antigen complexes were recovered with ProteinG-Dynabeads (Invitrogen) for 1.5 h at 4° C. Quantitative real-time PCR was carried out with QuantStudio™ 6 Flex Real-Time PCR Systems (Thermofisher Scientific). The amount of immunoprecipitated DNA in each sample was determined as the fraction of the input, and normalized to the IgG control. PCR Primers are listed in Supplementary Table S2.
as §5

The test system of assay [1] is SRC-1's binding with YAP and TEAD. Briefly: FLAG pulldown assay with recombinant proteins. The conditions noted are these: in vitro pulldown, concentrations up to 400 μM. How it is done:
FIG. 7N illustrates purified Flag-SRC-1 protein was mixed with YAP and/or TEAD4 in the presence of increasing concentrations of EVG and was subjected to three independent pull-downs using anti-flag beads.
Three independent pull down assays were performed to detect the direct binding between SRC1 and YAP/TEAD4. Purified FLAG-SRC1 truncated proteins were incubated with YAP, TEAD4 and YAP plus TEAD4 respectively, and further subjected to pull down assays by ANTI-FLAG® M2 Affinity Gel (A2220, Sigma-Aldrich). Elvitegravir was co-incubated with the mixtures at increasing concentrations (0, 50, 200, 400 μM) as indicated. Complexes were washed in PBS buffer and proteins were eluted using 2×SDS loading buffer.

Another assay has as its system lung cancer cell lines. Kind of assay: Cell proliferation of lung cancer cell lines. The assay is classed as cell-based. How it is done:
FIG. 7V illustrates cell proliferation (lung cancer cells and normal cells) affected by the treatment with elvitegravir. Error bars show mean±s.e.m. (n=3).
After 6 days [or other time period as indicated] culture, cell viability was measured using CellTiter-Glo® Luminescent Cell Viability Assay (Promega, G7572) and DMSO group was used as normalization to calculate half maximal inhibitory concentration (IC50) using Graphpad Prism software.

In another assay the test system is BEAS-2B cell colonies. Kind of assay: BEAS-2B colonies co-expressing SRC-1 and YAP. The class given is cell-based, human. Conditions: SRC-1 and YAP co-expressed BEAS-2B cell colonies. An excerpt: FIG. 7X illustrates the colonies of BEAS-2B cells overexpressing with both YAP and SRC-1 treated w/o EVG.
To explore whether SRC-1 and YAP cooperate in driving tumorigenesis, normal human lung bronchial epithelium cells (BEAS-2B) was transformed with YAP and/or SRC-1.

T1 sequence (Q15788 whole entry): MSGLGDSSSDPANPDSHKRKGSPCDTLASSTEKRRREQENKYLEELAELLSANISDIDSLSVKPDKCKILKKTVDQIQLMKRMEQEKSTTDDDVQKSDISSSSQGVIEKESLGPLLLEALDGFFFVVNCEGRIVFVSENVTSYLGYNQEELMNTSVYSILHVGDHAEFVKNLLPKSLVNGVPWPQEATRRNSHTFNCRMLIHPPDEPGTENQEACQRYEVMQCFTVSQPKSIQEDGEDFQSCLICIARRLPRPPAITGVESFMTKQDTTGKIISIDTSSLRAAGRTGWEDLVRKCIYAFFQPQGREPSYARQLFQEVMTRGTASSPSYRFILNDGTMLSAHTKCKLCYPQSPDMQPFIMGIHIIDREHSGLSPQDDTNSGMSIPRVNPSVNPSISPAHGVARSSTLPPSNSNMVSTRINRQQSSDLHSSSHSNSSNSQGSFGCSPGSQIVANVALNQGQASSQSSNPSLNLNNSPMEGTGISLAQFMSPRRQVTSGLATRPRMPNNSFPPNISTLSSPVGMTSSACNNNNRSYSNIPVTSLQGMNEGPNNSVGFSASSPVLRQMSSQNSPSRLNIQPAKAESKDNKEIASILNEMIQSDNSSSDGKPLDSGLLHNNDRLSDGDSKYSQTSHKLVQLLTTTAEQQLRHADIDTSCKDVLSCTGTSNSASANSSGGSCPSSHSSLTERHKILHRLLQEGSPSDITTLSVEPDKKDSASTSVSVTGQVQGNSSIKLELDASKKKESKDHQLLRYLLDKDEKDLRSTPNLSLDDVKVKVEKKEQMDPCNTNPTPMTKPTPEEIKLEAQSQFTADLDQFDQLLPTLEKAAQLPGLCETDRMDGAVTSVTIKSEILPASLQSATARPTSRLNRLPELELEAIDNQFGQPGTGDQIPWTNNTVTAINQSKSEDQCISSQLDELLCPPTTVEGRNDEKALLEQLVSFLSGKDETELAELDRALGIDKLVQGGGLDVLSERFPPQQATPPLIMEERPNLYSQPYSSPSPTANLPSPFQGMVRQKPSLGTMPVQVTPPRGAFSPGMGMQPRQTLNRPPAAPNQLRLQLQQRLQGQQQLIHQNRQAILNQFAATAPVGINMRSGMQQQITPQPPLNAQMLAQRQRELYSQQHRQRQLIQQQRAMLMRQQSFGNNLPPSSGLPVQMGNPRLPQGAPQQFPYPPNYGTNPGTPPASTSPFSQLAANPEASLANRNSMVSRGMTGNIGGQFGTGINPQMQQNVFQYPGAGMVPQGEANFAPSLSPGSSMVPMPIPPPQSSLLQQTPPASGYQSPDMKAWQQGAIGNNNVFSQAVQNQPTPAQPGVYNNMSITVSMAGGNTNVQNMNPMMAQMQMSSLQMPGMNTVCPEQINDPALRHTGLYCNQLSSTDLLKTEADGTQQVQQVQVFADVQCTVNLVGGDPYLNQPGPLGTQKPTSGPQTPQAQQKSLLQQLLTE

With `COc1cc2c(cc1Cc1cccc(Cl)c1F)c(=O)c(C(=O)O)cn2[C@H](CO)C(C)C` [EVG, 6-[(3-chloro-2-fluorophenyl)methyl]-1-[(2S)-1-hydroxy-3-methylbutan-2-yl]-7-methoxy-4-oxoquinoline-3-carboxylic acid], the “SRC-1 condensates / SRC1 phase separation (LLPS)” value at SRC-1 condensates (H1299 cells co-transfected with YAP5SA, TEAD4-mTagBFP, mNeoGreen-SRC1, 20 μM) is “impaired; also recorded: selectively disrupted”. In addition, at SRC-1 condensates (H1299 cells expressing either mNeoGreen or mScarlet labeled SRC-1, time course), the “nuclear SRC-1 puncta formation” value is recorded as “impaired the LLPS of SRC-1 in time-dependent manner; also recorded: suppressed”. In the assay on YAP/TEAD4 condensates, the YAP/TEAD condensates result is “remained intact; also recorded: but not the YAP/TEAD4 condensates”. Further, the “access of YAP to target genes (association of YAP on YAP target regions)” value in the assay with YAP is “excluding the possibility that EVG may block the access of YAP to target genes”. The “H3K27ac mark levels at YAP target genes” value with H3K27ac was “reducing”. In addition, the “SRC-1's binding with YAP and TEAD” value in assay [1] is given as “did not affect”. In addition, in the assay with lung cancer cell lines, the “proliferation of lung cancer cell lines” value was “effectively inhibited”. In the assay with BEAS-2B cell colonies, the “migratory activity at the outer colony border” value is reported as “dramatically inhibited”.
